Where two headings read alike, the source gives them in different places.
Columns and labels:
[1] = tested on: Pseudomonas aeruginosa MB9798 vs MB9799
In short: (§1)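 Microbroth MIC tests in PAO1-background strains with fixed imipenem and/or ceftazidime, usually at the CLSI breakpoint, plus fixed class A/C β-lactamase inhibitor against AmpC. MBL inhibitor titrated; concentration restoring susceptibility recorded and compared as fold difference between efflux+ MB9798 and efflux− MB9799.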

[2] = tested on: Pseudomonas aeruginosa efflux+ (MB9798), IMP-1; type: cell-based; set-up: Concentration of metallo-β-lactamase inhibitor which restores susceptibility of efflux + (MB9798) strain to imipenem: unit not given here; conditions: C, D serine β-lactamase inhibitor closely related to relebactam; for P. aeruginosa expressing IMP-1, efflux + (MB9798) MITC95: concentration restoring susceptibility to imipenem at 2 μg/mL in the presence of a class A; for Concentration of metallo-β-lactamase inhibitor which restores susceptibility of efflux + (MB9798) strain to imipenem: imipenem at 2 μg/mL, in the presence of a class A
In short: as §1

VIM-1 = VIM-1 (Pseudomonas aeruginosa (strain ATCC 15692 / DSM 22644 / CIP 104116 / JCM 14847 / LMG 12228 / 1C / PRS 101 / PAO1), UniProt A0A0F7KYQ8); experiment: biochemical; conditions: CCF2-FA substrate, 30 pM enzyme, 2 hours at 25° C.
In short: (§2)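 IC50 values derive from 4-parameter fits of percent inhibition against inhibitor concentration on semi-log axes. Activity was monitored by fluorescence with the CCF2-FA substrate after a 2-hour, 25° C incubation of compound, enzyme and substrate.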

[3] = tested on: Escherichia coli expressing NDM-1 (CLB30005, CLB30016); type: cell-based; conditions: with imipenem 1 μg/ml; for Escherichia coli expressing NDM-1 (CLB30016) MITC95: 95% inhibition of bacterial growth; for Escherichia coli MITC95: NDM-1 strain, 95% inhibition of growth
In short: (§3)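 Growth by absorbance after 22–24 h at 35°C defined the read-out, with imipenem fixed at 1 μg/ml alongside compound. Inocula came from overnight blood-agar colonies at 35°C, resuspended in saline and diluted 1:100 in 1.1×CAMHB.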

[4] = tested on: Klebsiella pneumoniae expressing VIM-1 (IHMA599644); type: cell-based; conditions: for Klebsiella pneumoniae expressing VIM-1 (IHMA599644) MITC95: with imipenem 1 μg/ml, 95% inhibition of bacterial growth; for Klebsiella pneumoniae MITC95: VIM-1 strain IHMA599644, with imipenem 1 μg/ml, 95% inhibition of growth
In short: as §3

[5] = tested on: Serratia marcescens expressing IMP-1 (CL5741); type: cell-based; conditions: for Serratia marcescens expressing IMP-1 (CL5741) MITC95: with imipenem 1 μg/ml, 95% inhibition of bacterial growth; for Serratia marcescens MITC95: IMP-1 strain CL5741, with imipenem 1 μg/ml, 95% inhibition of growth
In short: as §3

IMP-1 = IMP-1 (Serratia marcescens, UniProt P52699); experiment: biochemical; type: biochemical; conditions: fluorescence assay, CCF2-FA substrate, 2 pM enzyme, 2 hours at 25° C.; read-out: IMP-1 IC50
In short: as §2

NDM-1 = NDM-1 (Klebsiella pneumoniae, UniProt C7C422); experiment: biochemical; type: biochemical; conditions: fluorescence assay, CCF2-FA substrate, 1 pM enzyme, 2 hours at 25° C.; read-out: NDM-1 IC50
In short: as §2

[6] = tested on: Pseudomonas aeruginosa efflux− (MB9799), IMP-1; type: cell-based; conditions: C, D serine β-lactamase inhibitor closely related to relebactam; for P. aeruginosa expressing IMP-1, efflux − (MB9799) MITC95: concentration restoring susceptibility to imipenem at 2 μg/mL in the presence of a class A; for Concentration of metallo-β-lactamase inhibitor which restores susceptibility of efflux − (MB9799) strain to imipenem: imipenem at 2 μg/mL, in the presence of a class A
In short: as §1

[7] = ratio MITC95 PA_9798/MITC95 PA_9799
[8] = fluorescence assay, read-out: VIM-1 IC50
[9] = fold difference between efflux+ (MB9798) and efflux− (MB9799) strains, imipenem at 2 μg/mL

Sequence of NDM-1 (C7C422 whole entry, looked up, species assumed): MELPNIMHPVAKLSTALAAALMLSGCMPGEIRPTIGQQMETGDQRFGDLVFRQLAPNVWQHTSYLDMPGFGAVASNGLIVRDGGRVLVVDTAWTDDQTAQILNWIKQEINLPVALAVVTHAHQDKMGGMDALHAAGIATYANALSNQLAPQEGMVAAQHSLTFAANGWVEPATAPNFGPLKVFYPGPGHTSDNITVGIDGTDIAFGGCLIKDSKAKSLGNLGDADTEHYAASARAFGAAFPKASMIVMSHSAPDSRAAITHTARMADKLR
Sequence of IMP-1 (P52699 whole entry, looked up, species assumed): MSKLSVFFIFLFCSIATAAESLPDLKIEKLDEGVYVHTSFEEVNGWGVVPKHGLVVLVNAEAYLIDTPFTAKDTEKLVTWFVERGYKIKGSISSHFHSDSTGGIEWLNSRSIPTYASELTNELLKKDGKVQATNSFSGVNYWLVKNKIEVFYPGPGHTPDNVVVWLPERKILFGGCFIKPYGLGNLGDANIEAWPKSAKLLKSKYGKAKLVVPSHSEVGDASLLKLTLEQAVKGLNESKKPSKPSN

Compound	Efflux ratio [1, 7]	P. aeruginosa expressing IMP-1, efflux + (MB9798) MITC95 [2] [µM]	IC50 (VIM-1; [8]) [pM]	Escherichia coli expressing NDM-1 (CLB30016) MITC95 [3] [µM]	Klebsiella pneumoniae expressing VIM-1 (IHMA599644) MITC95 [4] [µM]	Serratia marcescens expressing IMP-1 (CL5741) MITC95 [5] [µM]	IC50 (IMP-1) [pM]	IC50 (NDM-1) [pM]	P. aeruginosa expressing IMP-1, efflux − (MB9799) MITC95 [6] [µM]	IC50 (VIM-1; VIM-1 IC50, fluorescence assay) [pM]	Escherichia coli MITC95 [3] [µM]	Klebsiella pneumoniae MITC95 [4] [µM]	Serratia marcescens MITC95 [5] [µM]	Efflux ratio [1, 9]	Concentration of metallo-β-lactamase inhibitor which restores susceptibility of efflux + (MB9798) strain to imipenem [2]	Concentration of metallo-β-lactamase inhibitor which restores susceptibility of efflux − (MB9799) strain to imipenem [6]
Nc1ccc(-c2ccc(S(N)(=O)=O)c(S(N)(=O)=O)c2-c2nn[nH]n2)cn1 [Example 155, 4-(6-Aminopyridin-3-yl)-3-(2H-tetrazol-5-yl)benzene-1,2-disulfonamide]	4.88	6.25	804	0.0625	2.563	0.6406	658	1640	1.281	–	–	–	–	–	–	–
Nc1nc2c(-c3ccc(S(=O)(=O)N[C@H]4CO[C@H]5[C@@H]4OC[C@H]5N)c(S(N)(=O)=O)c3-c3nnn[nH]3)cccc2s1.O=C(O)C(F)(F)F [Example 103, (3R,3aR,6S,6aR)-6-(4-(2-aminobenzo[d]thiazol-4-yl)-2-sulfamoyl-3-(1H-tetrazol-5-yl)phenylsulfonamido)hexahydrofuro[3,2-b]furan-3-aminium 2,2,2-trifluoroacetate]	2.00	3.125	–	3.125	3.125	3.125	226	29.3	1.563	196	–	–	–	–	–	–
NCC(CN)NS(=O)(=O)c1ccc(-c2cccc(-c3nc[nH]n3)c2)c(-c2nn[nH]n2)c1S(N)(=O)=O [Example 227, N4-(1,3-diaminopropan-2-yl)-2-(2H-tetrazol-5-yl)-3′-(1H-1,2,4-triazol-3-yl)-[1,1′-biphenyl]-3,4-disulfonamide]	1.00	1.563	137	1.563	3.125	1.563	164	48	1.563	–	–	–	–	–	–	–
NC[C@H](O)CNS(=O)(=O)c1ccc(-c2ccc(N)nc2)c(-c2nn[nH]n2)c1S(N)(=O)=O [Example 309, (S)-N1-(3-amino-2-hydroxypropyl)-4-(6-aminopyridin-3-yl)-3-(2H-tetrazol-5-yl)benzene-1,2-disulfonamide]	1.00	0.7813	–	–	–	–	501	197	0.7813	200	0.2279	1.563	0.5208	–	–	–
NS(=O)(=O)c1ccc(-c2cccc3cn[nH]c23)c(-c2nn[nH]n2)c1S(N)(=O)=O [Example 3, 4-(1H-indazol-7-yl)-3-(2H-tetrazol-5-yl)benzene-1,2-disulfonamide]	2.00	3.125	258	3.125	6.25	1.563	233	151	1.563	–	–	–	–	–	–	–
C[C@@H](CN)NS(=O)(=O)c1ccc(-c2ccnc(N)c2)c(-c2nn[nH]n2)c1S(N)(=O)=O [Example 398]	–	–	939	–	–	–	7450	2540	–	–	3.125	3.125	1.563	4.00	6.25	1.563
Nc1ccc(-c2ccc(S(=O)(=O)NC[C@H]3CCCN3)c(S(N)(=O)=O)c2-c2nn[nH]n2)cn1 [Example 489, (R)-4-(6-aminopyridin-3-yl)-N1-(pyrrolidin-2-ylmethyl)-3-(2H-tetrazol-5-yl)benzene-1,2-disulfonamide]	–	–	267	–	–	–	566	246	–	–	0.3906	1.563	0.3906	2.00	1.563	0.7813
CN(C)C1CCN(S(=O)(=O)c2ccc(-c3cccc4sc(N)nc34)c(-c3nnn[nH]3)c2S(N)(=O)=O)CC1 [Example 26, 3-(2-amino-1,3-benzothiazol-4-yl)-6-{[4-(dimethylamino)piperidin-1-yl]sulfonyl}-2-(1H-tetrazol-5-yl)benzenesulfonamide]	2.00	6.25	1660	12.5	12.5	3.125	1150	974	3.125	–	–	–	–	–	–	–
NCCNS(=O)(=O)c1ccc(-c2cccc(NC(=O)[C@H](N)CO)c2)c(-c2nn[nH]n2)c1S(N)(=O)=O [Example 454, (R)-2-amino-N-(4′-(N-(2-aminoethyl)sulfamoyl)-3′-sulfamoyl-2′-(2H-tetrazol-5-yl)-[1,1′-biphenyl]-3-yl)-3-hydroxypropanamide]	–	–	262	–	–	–	3460	757	–	–	1.563	6.25	3.125	2.00	3.125	1.563

From US10221163B2 (priority 2015, dated 2019)
